Consider four molecules from patent publication US12161628B2, “Combination therapy” (Medivation Prostate Therapeutics LLC, priority 2015, dated 2024).

“And” between values parts separate entries of the source, which are not always exact repeats. Equal entries are not always repeated. Where two headings read alike, the source gives them in different places.

In one data set the test system is CYP3A4. Particulars: in vivo. As to the method:
Data handling. […] In addition, for many subjects, urine samples taken post enzalutamide dose were not taken within 180 minutes of the ‘virtual’ enzalutamide dosing time (i.e., day 1 enzalutamide dosing time [enzalutamide treatment arm{treatment arm 1}] and day 8 enzalutamide dosing time [enzalutamide+rifampin treatment arm {treatment arm 2}]) and/or pre-dose of rifampin. The 6β-hydroxycortisol and cortisol concentrations of these urine samples and obtained 6β-hydroxycortisol/cortisol ratios were excluded from summary statistics.

The conditions of data set [1]: human, in vivo.
Procedure: (§1) For all subjects in the rifampin treatment arm, the last quantifiable enzalutamide concentration was measured prior to the end of the rifampin dosing period (up to 13 days after enzalutamide dosing).
(§2) It should be noted that AUCs could only be accurately determined for 4 subjects in the enzalutamide treatment arm (treatment arm 1) and 6 subjects in the enzalutamide+rifampin treatment arm (treatment arm 2).
Another data set in a line: clinical. Particulars: human, in vivo; for Vd/F: Vz/F.
Data set [2] in a line: Drug-drug interaction trial: plasma pharmacokinetics of enzalutamide, M1, M2 and sum of enzalutamide plus M2 after single 160 mg enzalutamide alone or with multiple doses of rifampin.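 On all read-outs here: human plasma pharmacokinetics in a two-arm drug interaction trial comparing enzalutamide given alone against enzalutamide given with rifampin.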 The conditions noted are these: for MPR (MWC): metabolite versus parent ratio (molecular weight corrected), Mean: based on AUCinf.
Procedure: as §1, §2
The nature of data set [3]: Rifampin plasma pharmacokinetics on day 8 after multiple doses of 600 mg once daily. It counts as in vivo, human (healthy volunteers). Particulars: multiple doses of 600 mg rifampin once daily; for AUC / concentration at 2 h / Cmax / Tmax: human, plasma, oral, 600 mg. As to the method: Data handling. The actual sampling time of enzalutamide and its metabolites for 6 subjects (7 samples in total), and the actual sampling time of the 2-hour rifampin sample of subject 10002 on Day 21 deviated more than 10% of the scheduled time point.
In FIG. 7, individual and mean rifampin C2H plasma concentrations that were obtained during the entire dosing period of 21 days are presented.
Median tmax was reached 2 hours post-dose.

[4] abbreviates: plasma, Enzalutamide (Reference), single 160 mg dose alone.
Setting [5] is: plasma, single dose 160 mg enzalutamide alone.
[6] abbreviates: plasma, single dose 160 mg enzalutamide in the presence of multiple doses of 600 mg rifampin once daily (Test).

The AUC(0-inf) is the area under the concentration-time curve extrapolated to infinity. A low value points to less exposure. The AUC(0-t) is the area under the concentration-time curve up to a stated or last time point. Lower therefore signals less exposure. As a reminder, the Cmax is the maximum level reached in the sampled fluid or tissue. By Vd/F is commonly meant the volume of distribution divided by bioavailability. A word on the half-life: it is the time needed for the level to fall by half in the phase considered. A higher half-life goes with slow loss. One may read the Tmax as the time at which the peak concentration occurs.

Procedure for clinical: as §1, §2

In the case of `CNC(=O)c1ccc(N2C(=S)N(c3ccc(C#N)c(C(F)(F)F)c3)C(=O)C2(C)C)cc1F` [Enzalutamide, 4-{3-[4-cyano-3-(trifluoromethyl)phenyl]-5,5-dimethyl-4-oxo-2-sulfanylideneimidazolidin-1-yl}-2-fluoro-N-methylbenzamide], the “Inductive effect on CYP3A4 (pharmacodynamic assessment)” value in the data set on CYP3A4 is on record as “minimal inductive effect”. Moreover, in data set [1], the “AUC0-336hr lower in the presence of rifampin” value is 63%. The “AUCinf lower in the presence of rifampin” value in data set [1] is 66%. In addition, the “% AUC (percentage extrapolated), range of individual values” in data set [1] (160 mg) was 0.658-4.56%. Further, the “CL/F, Mean” value in data set [1] (160 mg) was found to be 0.6330 L/h. Also, the “CL/F, Median” value in data set [1] (160 mg) is 0.6184 L/h. Further, the AUC(0-inf) amounted to 86.9 µg·h/mL in “clinical”; 257 µg·h/mL in the data set “clinical” (160 mg, AUCinf, Geometric LS Mean); 262 µg·h/mL in “clinical” (160 mg, AUCinf, Mean); 259 µg·h/mL in the data set “clinical” (160 mg, AUCinf, Median). The AUC(0-t) in “clinical” worked out at 86.8 µg·h/mL; in the data set “clinical” (160 mg, AUC0-336h, Mean), 239 µg·h/mL; in “clinical” (160 mg, AUC0-336h, Median) it was 233 µg·h/mL; in the data set “clinical” (160 mg, AUC0-t, Mean) it was 258 µg·h/mL; in the data set “clinical” (160 mg, AUC0-t, Median), 254 µg·h/mL. The Cmax in “clinical” turned out to be 4520 ng/mL; in the data set “clinical” (160 mg, Cmax, Geometric LS Mean), 4860 ng/mL; in the data set “clinical” (160 mg, Cmax, Mean), 4930 ng/mL; in the data set “clinical” (160 mg, Cmax, Median), 5140 ng/mL. Moreover, the Vd/F in “clinical” (160 mg, Mean) was 79.8 L; in the data set “clinical” (160 mg, Median) it was 78.1 L. The half-life was 90.1 h in “clinical” (160 mg, t1/2, Mean) and 85.7 h in “clinical” (160 mg, t1/2, Median). Moreover, the Tmax was found to be 1.08 h in “clinical” (160 mg, Mean) and 0.91 h in the data set “clinical” (160 mg, Median).
`CC1(C)C(=O)N(c2ccc(C#N)c(C(F)(F)F)c2)C(=S)N1c1ccc(C(=O)O)c(F)c1` [M1]: in data set [1], the “AUC0-336hr lower in the presence of rifampin” value came out at 15% and the “AUCinf lower in the presence of rifampin” value was determined as 32%. In addition, in data set [1] (160 mg), the “AUC0-336h, Mean” value was 32.49 µg·h/mL; the “AUC0-336h, Median” value was found to be 31.38 µg·h/mL; the “AUC0-t, Mean” value was determined as 47.87 µg·h/mL; the “AUC0-t, Median” value amounted to 46.66 µg·h/mL. Further, in data set [1] (160 mg), the “AUCinf, Geometric LS Mean” value turned out to be 59.62 µg·h/mL; the “AUCinf, Mean” value came to 62.14 µg·h/mL; the “AUCinf, Median” value was 57.39 µg·h/mL; the “Cmax, Geometric LS Mean” value is 134.6 ng/mL. Moreover, in data set [1] (160 mg), the “Cmax, Mean” value was determined as 141.4 ng/mL; the “Cmax, Median” value came out at 135 ng/mL; the “t1/2, Mean” value stood at 223.9 h; the “t1/2, Median” value is given as 236.6 h.
In the case of `CC1(C)C(=O)N(c2ccc(C#N)c(C(F)(F)F)c2)C(=S)N1c1ccc(C(N)=O)c(F)c1` [M2, N-desmethyl enzalutamide], in data set [2] (compared to enzalutamide alone), the “AUC0-336hr higher in the presence of rifampin” value stood at 15%, the “AUCinf lower in the presence of rifampin” value is on record as 15% and the “Cmax higher in the presence of rifampin” value was determined as 34%. In addition, in data set [2] (setting [4]), the “AUCinf, Geometric LS Mean” value was 349.3 µg·h/mL and the “Cmax, Geometric LS Mean” value turned out to be 737 ng/mL. Also, in data set [2] (setting [5]), the “AUC0-336h, Mean” value worked out at 197.6 µg·h/mL; the “AUC0-336h, Median” value stood at 184.1 µg·h/mL; the “AUC0-t, Mean” value was found to be 344.3 µg·h/mL; the “AUC0-t, Median” value amounted to 338.3 µg·h/mL. In data set [2] (setting [5]), the “AUCinf, Mean” value is 354.0 µg·h/mL; the “AUCinf, Median” value was 351.0 µg·h/mL; the “Cmax, Mean” value came out at 754.6 ng/mL; the “Cmax, Median” value is 714.5 ng/mL. For the same molecule, in data set [2] (setting [5]), the “MPR (MWC): metabolite versus parent ratio (molecular weight corrected), Median” value is 1.373; the “t1/2, Mean” value is 190.4 h; the “t1/2, Median” value is 182.1 h; the “tmax, Mean” value is 161.3 h. The “MPR (MWC): metabolite versus parent ratio (molecular weight corrected), Mean” value in data set [2] (setting [5]) was 1.385 and 1.431. Besides, in data set [2] (setting [6]), the “AUC0-336h, Mean” value was 224.0 µg·h/mL; the “AUC0-336h, Median” value was found to be 221.9 µg·h/mL; the “AUC0-t, Mean” value turned out to be 292.1 µg·h/mL; the “AUC0-t, Median” value amounted to 293.5 µg·h/mL. Moreover, in data set [2] (setting [6]), the “AUCinf, Mean” value is 297.9 µg·h/mL; the “AUCinf, Median” value amounted to 299.4 µg·h/mL; the “Cmax, Mean” value is 994.9 ng/mL; the “Cmax, Median” value worked out at 1010 ng/mL. In data set [2] (setting [6]), the “MPR (MWC): metabolite versus parent ratio (molecular weight corrected), Median” value amounted to 3.372; the “t1/2, Mean” value is listed as 154.7 h; the “t1/2, Median” value was found to be 152.5 h; the “tmax, Mean” value was determined as 66.75 h. In addition, in data set [2] (setting [6]), the “tmax, Median” value is listed as 71.86 h; the “MPR (MWC): metabolite versus parent ratio (molecular weight corrected), Mean” value is 3.443 and 3.558.
For `CO[C@H]1/C=C/O[C@@]2(C)Oc3c(C)c(O)c4c(O)c(c(/C=N/N5CCN(C)CC5)c(O)c4c3C2=O)NC(=O)/C(C)=C\C=C\[C@H](C)[C@H](O)[C@@H](C)[C@@H](O)[C@@H](C)[C@H](OC(C)=O)[C@@H]1C` [Rifampin, rifampin], the AUC in data set [3] (read-out: AUCtau, Mean) was found to be 35.6 µg·h/mL; in data set [3] (read-out: AUCtau, Median) it was 35.2 µg·h/mL. Further, the concentration at 2 h in data set [3] (read-out: C2h, Mean) turned out to be 6760 ng/mL; in data set [3] (read-out: C2h, Median), 6620 ng/mL. The highest concentration (Cmax) was 7160 ng/mL in data set [3] (read-out: Cmax, Mean) and 7040 ng/mL in data set [3] (read-out: Cmax, Median). Moreover, the time to peak (Tmax) in data set [3] (read-out: tmax, Mean) worked out at 1.72 h; in data set [3] (read-out: tmax, Median), 2 h. Also, in data set [3], the “Cmin, Mean” value worked out at 0 ng/mL.
